The test system of test [1] is wound repair. As to the kind of experiment: Supplementation of individuals with DHEA, wound healing in the aged. The class given is in vivo.
Test [2] relates to full thickness incisional wounds. The test can be described thus: Incisional wound healing in OVX and sham rats, histology at day 7 post-wounding. On the set-up: key to NEW COLLAGEN / CELLS: + = little/few; ++++ = lots); key to EPITHELIALISATION: Y = epithelialised. It counts as in vivo, Female Sprague Dawley rats. From the text: Female Sprague Dawley rats were housed together in three groups (1A, 1B and 1C) of nine to allow for synchronised oestrus cycling. Group 1A were ovariectomised (OVX) 18 days prior to wounding to allow circulating sex hormone levels to be eliminated. Group 1B (control) were untreated and Group 1C had the same operative procedure as the OVX (Group 1A), but without the removal of the ovaries, to ensure that the OVX operative procedure had no effect on the wounding studies (sham).
17 β-oestradiol (Sigma) was prepared as sterile 0.1% and 1% solutions in phosphate buffered saline (PBS) containing 0.1% and 1% 2-hydroxypropyl-β-cyclodextrin respectively, 2-hydroxypropyl-β-cyclodextrin is used in preparations as a carrier molecule to increase the water solubility of β-oestradiol. PBS/cyclodextrin was used as a vehicle control.
Animals from Groups 1A, 1B and 1C were given 4×1 cm length full thickness incisional wounds at 4.5-5.5 cm and 7.5-8.5 cm below the base of the skull, 1 cm either side of the midline. A single 100 μl intradermal injection was then given at each of the four wound sites. Each of the wounds (a total of 36 wounds on 9 rats in each group) received either 100 μl of oestradiol (0.1% or 1%), 100 μl of vehicle control (0.1% or 1% cyclodextrin) or was left unmanipulated (no injection).
The wounds were allowed to heal for 7 days after which the wounded tissue was excised for histological analysis.
7 μm paraffin-embedded sections were stained with H&E and Masson's Trichrome. The rate of re-epithelialisation (at day 7 post-wounding), and wound sizes as determined by planimetry, were determined with image analysis using an Olympus Vanox camera and PC image capture system. Collagen quantity within the wound was determined by two observers blinded to the identity of the specimen.

The test system of test [3] is 4 mm punch biopsy wounds of the upper inner arm. As to the kind of experiment: Topical oestrogen patch clinical trial of wound healing in elderly men and women. The class given is in vivo, human. The note with it: patch applied to the wound for 24 hours post-wounding. The procedure:
Approval for this study was given by the local Ethics Committee. Forty health-status defined volunteers split into four groups: (i) GROUP 3A comprised ten women with mean age 76.3 yr (Sd 5.6) who received oestrogen supplements (25 μg/24 hrs of oestradiol) (ii) GROUP 3B comprised ten women with mean age 72.5 yr (Sd 7.1) who received placebo instead of oestrogen. (iii) GROUP 3C comprised ten men with mean age 69.6 yr (Sd 3.6) who received oestrogen supplements (ii) GROUP 3D comprised ten men with mean age 71.8 yr (Sd 8.9) who received placebo instead of oestrogen. After informed consent subjects from each of Groups 3A, 3B, 3C and 3D underwent two 4 mm punch biopsies from the upper inner arm (a non sun-exposed site) following local infiltration with 1 ml 1% lignocaine. Each biopsy of normal skin was bisected and one-half embedded in Optimal Cutting Temperature compound (Miles Inc. Elkhart, Ind.), frozen over liquid nitrogen, and stored at −70° C., and one-half snap-frozen in liquid nitrogen and stored at −70° C. The area for biopsy was covered by a 2×3 cm patch (placebo Groups 3B and 3D or active oestradiol 3A and 3C) through which the biopsies were made. The patch was covered by a Multisorb dry gauze dressing (Smith & Nephew) and both were removed after 24 hrs. The active patches contained sufficient oestradiol such that the wound sites were exposed to 25 μg/24 hrs of oestradiol. Five subjects from Groups 3A, 3B, 3C and 3D underwent re-excision of the wounds at day 7 post-wounding, and the other five subjects from each group at day 84 post-wounding. The left upper inner arm was cleaned with isopropyl alcohol, elliptical excisions of the wounds were made following 1% lignocaine infiltration and two sutures were used to close the gap. Each wound was bisected and processed as described above (3.1.3). 7 μm paraffin-embedded sections were strained with H&E and Masson's Trichrome. The rate of re-epithelialisation (at day 7 post-wounding), and wound sizes as determined by planimetry, were determined with image analysis using an Olympus Vanox camera and PC image capture system. Collagen quantity within the wound was determined by two observers blinded to the identity of the specimen on the following scale +=minimal quantities; ++=less than normal skin; +++=similar to normal skin; ++++=greater than normal skin. The wound stiffness at day 80 was determined using the non-disruptive Dimensional Analysis System (Das). Previous studies have correlated wound breaking strength values (ultimate pressure at failure) to wound stiffness using this system. The system applies a multiaxial load (negative pressure) to the wound and measures the deformation due to the load of two reflective targets placed at the wound edges, using a high resolution camera and video processor. Pressure was applied to a maximum of 100 mmHg and then released, Stiffness was measured between 20 and 80 mmHg.

Where [4] appears, read: 0.1% oestradiol with 0.1% cyclodextrin vehicle, single 100 μl intradermal injection, OVX rats.
Where [5] appears, read: 0.1% oestradiol with 0.1% cyclodextrin vehicle, single 100 μl intradermal injection, SHAM rats.
Setting [6] is: 1% oestradiol with 1% cyclodextrin vehicle, single 100 μl intradermal injection, OVX rats.
The mark [7] stands for this setting: 1% oestradiol with 1% cyclodextrin vehicle, single 100 μl intradermal injection, SHAM rats.

Regarding `C[C@]12CC[C@H](O)CC1=CC[C@@H]1[C@@H]2CC[C@]2(C)C(=O)CC[C@@H]12` [DHEA, Dehydroepiandrosterone], the “rate of wound repair” value in test [1] is “stimulating the rate of wound repair”.

With `C[C@]12CC[C@@H]3c4ccc(O)cc4CC[C@H]3[C@@H]1CC[C@@H]2O` [OESTRADIOL, 17 β-oestradiol], the CELLS result in test [2] (setting [4]) is on record as “+”. The EPITHELIALISATION result in test [2] (setting [4]), in test [2] (setting [5]), in test [2] (setting [6]) and in test [2] (setting [7]) was “Y” each time. In test [2] (setting [4]), the “NEW COLLAGEN” value was “++++”. Moreover, the “WOUND WIDTH” value in test [2] (setting [4]) is reported as “narrow”; in test [2] (setting [5]), “narrow”; in test [2] (setting [6]), “narrow”; in test [2] (setting [7]), “wide”. For the same compound, the “rate of wound healing” value in test [2] (1% β-oestradiol, OVX group wounds, compared to control PBS treated and unmanipulated wounds) is “increased rate of wound healing”; in test [2] (single application of 0.1% β-oestradiol, OVX wounds, compared to control wounds) it was “accelerated wound healing”. Moreover, in test [3], the “rate at which the wound heals” value is given as “sufficient to improve the rate at which the wound heals”.

(Values after patent US6696433B2, “Use of sex steroids function modulators to treat wounds and fibrotic disorders” (Renovo Limited, priority 1996, dated 2004).)
